{
  "source": "patent US12391646B2",
  "about": "“Using adiponectin receptor agonists to treat inflammation and bone diseases in diabetes” (Trustees of Tufts College, priority 2020, dated 2025)",
  "key": {"[1]": {"test_system": "LPS-induced Raw264.7 cells", "assay": "ELISA of IL-6 and IL-1β in supernatants of LPS-induced Raw264.7 cells", "format": "cell-based", "details": "AdipoAI 5 μM 24 h then LPS 6 h", "protocol": "(§1) FIG. 2 AdipoAI suppresses LPS-stimulated inflammatory responses in macrophages. (a) Raw264.7 cells or (b) BMMs were pretreated with APR (20 μM) or AdipoAI (5 μM) for 24 h followed by incubation with LPS (100 ng/mL) for additional 6 h for the measurement of IL-6 and IL-1β in supernatants by ELISA. Data were expressed as the mean±SEM at five biological independent experiments. One-way ANOVA test for multiple-group comparisons, * vs. LPS group, *P<0.05, significant differences between each indicated group. (c) PEMs were isolated from C57BL/6J mice (n=5 mice/group) were injected i.p. with ImL 4% thioglycolate solution or AdipoAI (25 mg/kg) for the measurement of IL-6 and IL-1β. The amounts of IL-6 and IL-1β in supernatant were measured by ELISA. Data were expressed as the mean±SEM (n=5). Two-tailed Student's t-test for two groups, *P<0.05, significant differences between each indicated group. (d-f) Impact of AdipoAI on basal (d) and LPS-induced expression of an array of proinflammatory cytokines, chemokines, and receptors (e,f) in Raw264.7 cells (4 groups and 3 biological replicates/group). Data analyses were performed according to the manufacturer's instructions with their web-based software package (www.qiagen.com/us/shop/genes-and-pathways/data-analysis-center overview-page/). […]"}, "[2]": {"test_system": "peritoneal macrophages (PEMs)", "assay": "IL-6 and IL-1β production by peritoneal macrophages isolated from AdipoAI-treated mice", "format": "in vivo, C57BL/6J mice", "details": "i.p., 20 mg/kg body weight as printed"}, "[3]": {"test_system": "LPS-stimulated Raw264.7 cells", "assay": "mRNA microarray analysis of LPS-stimulated Raw264.7 cells", "format": "cell-based", "protocol": "as §1, with “overview-page/). (g) Differentiated expressed genes annotated to a gene-ontology term and example genes by gene-ontology-enrichment analysis of each component. (brown: LPS vs control; black: AdipoAI+LPS vs LPS). (h) Differentially expressed M1 and M2 genes are shown according to the microarray databases.” for “overview-page/).”\nFIG. 7 AdipoAI regulated methylation level of the c-Maf gene promoter to suppress c-Maf activation in LPS-induced macrophages. […] (b) mRNA levels of c-Maf were determined by qPCR in Raw264.7 cells, BMMs and PEMs treated with AdiopoAI or LPS. Data were expressed as the mean±SEM at five […] biological independent experiments. […] (c) c-Maf mRNA expression levels in lung, spleen, liver and WAT of LPS-induced endotoxemia mice were measured by qRT-PCR and normalized with GAPDH mRNA levels. Data are expressed as mean±SEM (n=6). […]"}},
  "data": [
    {"smiles": "COc1ccc(CN2CCC(NC(=O)COc3ccc(C(=O)c4ccc(Cl)cc4)cc3)CC2)cc1", "note": "[Compound 3]", "values": [
      {"measurement": "IL-6 and IL-1β protein levels (ELISA)", "setting": "[1]", "value": "decreased IL-6 and IL-1β protein levels"},
      {"measurement": "production of IL-6 and IL-1β by PEMs from treated mice", "setting": "[2]", "value": "reduced IL-6 and IL-1β"},
      {"measurement": "expression of M1 or M2 macrophage-related genes", "setting": "[3]; LPS-induced Raw264.7 cells", "value": "did not alter the expression of M1 or M2 macrophage-related genes"},
      {"measurement": "expression of proinflammatory cytokines, chemokines and receptors (microarray)", "setting": "[3]; LPS-stimulated Raw264.7 cells", "value": "decreased the expression of the same genes to near basal levels"},
      {"measurement": "c-Maf mRNA levels (microarray)", "setting": "[3]; LPS-treated Raw264.7 cells", "value": "inhibited"}
    ]}
  ]
}
